Literature values in patent US20240216293A1, “USE OF PERILLYL ALCOHOL TO ENHANCE LEVO-DOPA DELIVERY” (NEONC TECHNOLOGIES, INC, priority 2021, published 2024).

Test system: patients with recurrent malignant gliomas
Conditions: Phase I/IIa trials, intranasal

Question: Which toxic side effects does the source give for `C=C(C)C1CC=C(CO)CC1` (stereo not shown) [NEO100, perillyl alcohol] here?
Answer: without toxic side effects
